Data as given in PubChem BioAssay AID248 (DTP/NCI, 2004).
Values joined by “and” are separate entries in the source; they are usually repeats but may differ in a detail not shown here. Equal entries are not always repeated. Inconclusive results and toxic doses are left out. No stated cut-off is given here; in the data, active means T/C of 150% or more; inactive means T/C below 125%.

Tested on: L1210 leukemia ip in BDF1 mice, survival T/C
Test: NCI In Vivo Anticancer Drug Screen. Data for tumor model L1210 Leukemia (intraperitoneal) in B6D2F1 (BDF1) mice
Settings: endpoint: mean survival time, higher = longer survival
Procedure, shortened: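 Transplanted-tumor mice were given test agent; controls received vehicle only. Survival readings from the two groups were divided (treated over control).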

[1] = dose: 50.0 mg/kg/injection, schedule: Q04DX002 (ip), vehicle: saline
[2] = dose: 75.0 mg/kg/injection, schedule: Q01DX001 (ip), vehicle: saline
[3] = dose: 100.0 mg/kg/injection, schedule: Q04DX002 (ip), vehicle: Klucel (hydroxypropylcellulose) (HPC)
[4] = dose: 200.0 mg/kg/injection, schedule: Q04DX002 (ip), vehicle: Klucel (hydroxypropylcellulose) (HPC)
[5] = dose: 100.0 mg/kg/injection, schedule: Q04DX003 (ip), vehicle: Klucel (hydroxypropylcellulose) (HPC)
[6] = dose: 200.0 mg/kg/injection, schedule: Q04DX003 (ip), vehicle: Klucel (hydroxypropylcellulose) (HPC)
[7] = dose: 10.0 mg/kg/injection, schedule: Q01DX001 (ip), vehicle: saline
[8] = dose: 100.0 mg/kg/injection, schedule: Q01DX001 (ip), vehicle: other
[9] = dose: 200.0 mg/kg/injection, schedule: Q01DX001 (ip), vehicle: other
[10] = dose: 400.0 mg/kg/injection, schedule: Q01DX001 (ip), vehicle: other
[11] = dose: 400.0 mg/kg/injection, schedule: Q04DX003 (ip), vehicle: Klucel (hydroxypropylcellulose) (HPC)
[12] = dose: 400.0 mg/kg/injection, schedule: Q04DX002 (ip), vehicle: Klucel (hydroxypropylcellulose) (HPC)
[13] = dose: 100.0 mg/kg/injection, schedule: Q04DX003 (ip), vehicle: saline with Tween-80
[14] = dose: 50.0 mg/kg/injection, schedule: Q01DX009 (ip), vehicle: saline with Tween-80
[15] = dose: 100.0 mg/kg/injection, schedule: Q01DX009 (ip), vehicle: saline with Tween-80

Measured: T/C

Nc1nnnc2c1ncn2C1OC(CO)C(O)C1O (centres undefined)
inactive: dose: 1.6 mg/kg/injection, schedule: Q01DX009 (ip), vehicle: saline 120 % of control | dose: 2.8 mg/kg/injection, schedule: Q01DX009 (ip), vehicle: saline 108 % of control | dose: 4.8 mg/kg/injection, schedule: Q01DX009 (ip), vehicle: saline 117 % of control | dose: 9.5 mg/kg/injection, schedule: Q01DX001 (ip), vehicle: saline 106 % of control | dose: 12.5 mg/kg/injection, schedule: Q04DX002 (ip), vehicle: saline 92 % of control | dose: 14.0 mg/kg/injection, schedule: Q01DX009 (ip), vehicle: saline 123 % of control | dose: 19.0 mg/kg/injection, schedule: Q01DX001 (ip), vehicle: saline 103 % of control and 117 % of control | dose: 25.0 mg/kg/injection, schedule: Q04DX002 (ip), vehicle: saline 100 % of control | dose: 38.0 mg/kg/injection, schedule: Q01DX001 (ip), vehicle: saline 106 % of control and 120 % of control | dose: 38.0 mg/kg/injection, schedule: Q01DX009 (ip), vehicle: saline 105 % of control | [1] 103 % of control | [2] 106 % of control

CC(C)OC(=O)Nc1ccc(Br)cc1
inactive: [3] 88 % of control | [4] 95 % of control

CCOC(=O)Oc1c(OC)cc(C(=O)O[C@@H]2C[C@@H]3CN4CCc5c([nH]c6cc(OC)ccc56)[C@H]4C[C@@H]3[C@H](C(=O)OC)[C@H]2OC)cc1OC
inactive: dose: 25.0 mg/kg/injection, schedule: Q04DX003 (ip), vehicle: Klucel (hydroxypropylcellulose) (HPC) 101 % of control | dose: 50.0 mg/kg/injection, schedule: Q04DX003 (ip), vehicle: Klucel (hydroxypropylcellulose) (HPC) 106 % of control | [5] 95 % of control | [6] 98 % of control

COc1ccccc1N(C(C)=O)C1=C(Cl)C(=O)c2ccccc2C1=O
inactive: [7] 97 % of control | dose: 20.0 mg/kg/injection, schedule: Q01DX001 (ip), vehicle: saline 97 % of control

O=C(Nc1ccc([N+](=O)[O-])cc1)OCC(COc1ccccc1)OC(=O)Nc1ccc([N+](=O)[O-])cc1 (centres undefined)
inactive: [8] 100 % of control | [9] 89 % of control | [10] 100 % of control

COc1cccc(CNCc2cccc(OC)c2O)c1O
inactive: dose: 100.0 mg/kg/injection, schedule: Q01DX001 (ip), vehicle: saline 96 % of control

CC1=CC(=O)CC(C)C2CC(=C(C)C)CC12 (centres undefined)
inactive: [5] 100 % of control | [6] 108 % of control | [11] 100 % of control

COc1ccccc1NC(=S)Nc1ccccc1
inactive: [3] 97 % of control | [4] 101 % of control | [12] 108 % of control

Nc1ncnc2c1ncn2C1OC(C2CC2)C(O)C1O (centres undefined)
inactive: dose: 25.0 mg/kg/injection, schedule: Q01DX005 (ip), vehicle: saline 111 % of control | dose: 50.0 mg/kg/injection, schedule: Q01DX005 (ip), vehicle: saline 104 % of control | dose: 100.0 mg/kg/injection, schedule: Q01DX005 (ip), vehicle: saline 98 % of control | dose: 200.0 mg/kg/injection, schedule: Q01DX005 (ip), vehicle: saline 94 % of control

C[N+](C)(CC(=O)Nc1ccc(Cl)c(Cl)c1)CC(=O)c1ccc(Cl)cc1
inactive: dose: 6.25 mg/kg/injection, schedule: Q01DX009 (ip), vehicle: saline 96 % of control | dose: 12.5 mg/kg/injection, schedule: Q01DX009 (ip), vehicle: saline 96 % of control | dose: 25.0 mg/kg/injection, schedule: Q01DX009 (ip), vehicle: saline 89 % of control | [13] 92 % of control

CC1CC(=O)c2cccc(Cl)c2N1C (centres undefined)
inactive: [5] 100 % of control | [6] 100 % of control | [11] 98 % of control

CCNC(C1CCCCC1)C(C)OC(=O)c1ccc(N)cc1 (centres undefined)
inactive: [2] 98 % of control

O=C(CNC(=O)Nc1ccc(Cl)c(Cl)c1)N/N=C/c1cccc(F)c1
inactive: [14] 96 % of control | [15] 93 % of control | dose: 200.0 mg/kg/injection, schedule: Q01DX009 (ip), vehicle: saline with Tween-80 89 % of control

COC1OC(CI)C(OC(C)=O)C(OC(C)=O)C1OS(C)(=O)=O (centres undefined)
inactive: [3] 97 % of control | [4] 106 % of control | [12] 91 % of control

CC(C)(C)OC(=O)NOc1ccc([N+](=O)[O-])cc1[N+](=O)[O-]
inactive: dose: 2.0 mg/kg/injection, schedule: Q01DX009 (ip), vehicle: saline with Tween-80 95 % of control | dose: 4.0 mg/kg/injection, schedule: Q01DX009 (ip), vehicle: saline with Tween-80 106 % of control | dose: 8.0 mg/kg/injection, schedule: Q01DX009 (ip), vehicle: saline with Tween-80 107 % of control | dose: 16.0 mg/kg/injection, schedule: Q01DX009 (ip), vehicle: saline with Tween-80 101 % of control | dose: 25.0 mg/kg/injection, schedule: Q04DX003 (ip), vehicle: saline with Tween-80 105 % of control | dose: 50.0 mg/kg/injection, schedule: Q04DX003 (ip), vehicle: saline with Tween-80 92 % of control | dose: 75.0 mg/kg/injection, schedule: Q01DX001 (ip), vehicle: carboxymethylcellulose (CMC) 96 % of control | [13] 88 % of control

CCCn1c(O)c(C(=O)CC)sc1=S
inactive: [14] 95 % of control | [15] 88 % of control

C[N+](C)(CCCN1C(=O)c2cccc3c(Br)ccc(c23)C1=O)Cc1ccc(Cl)c(Cl)c1
inactive: [8] 98 % of control | [9] 96 % of control | [10] 93 % of control

C1CCC2CCCCC2C1 (centres undefined)
inactive: dose: 3.13 mg/kg/injection, schedule: Q04DX002 (ip), vehicle: saline with Tween-80 100 % of control | dose: 6.25 mg/kg/injection, schedule: Q04DX002 (ip), vehicle: saline with Tween-80 103 % of control | dose: 12.5 mg/kg/injection, schedule: Q04DX002 (ip), vehicle: saline with Tween-80 103 % of control | [1] 98 % of control | dose: 100.0 mg/kg/injection, schedule: Q04DX002 (ip), vehicle: saline 91 % of control | dose: 200.0 mg/kg/injection, schedule: Q04DX002 (ip), vehicle: saline 91 % of control | dose: 400.0 mg/kg/injection, schedule: Q04DX002 (ip), vehicle: saline 91 % of control

CCN(CC)CC(=O)NCC(CCN(C)C)(c1cccc2ccccc12)C(C)C (centres undefined)
inactive: dose: 100.0 mg/kg/injection, schedule: Q04DX003 (ip), vehicle: saline 102 % of control | dose: 200.0 mg/kg/injection, schedule: Q04DX003 (ip), vehicle: saline 93 % of control

C=C1CC(C)(C)C(c2ccccc2)OC1=O (centres undefined)
inactive: dose: 100.0 mg/kg/injection, schedule: Q01DX001 (ip), vehicle: saline with Tween-80 107 % of control | dose: 200.0 mg/kg/injection, schedule: Q01DX001 (ip), vehicle: saline with Tween-80 102 % of control

C=CC1=CC(=O)OC1=O
inactive: [7] 88 % of control

CC1(C)C/C(=C\c2cccc(Br)c2)C(=O)c2ccccc21
inactive: dose: 100.0 mg/kg/injection, schedule: Q01DX009 (ip), vehicle: Klucel (hydroxypropylcellulose) (HPC) 104 % of control | [5] 98 % of control | dose: 200.0 mg/kg/injection, schedule: Q01DX009 (ip), vehicle: Klucel (hydroxypropylcellulose) (HPC) 98 % of control | [6] 106 % of control | dose: 400.0 mg/kg/injection, schedule: Q01DX009 (ip), vehicle: Klucel (hydroxypropylcellulose) (HPC) 103 % of control | [11] 101 % of control

O=[As]1(c2cccc3ccccc23)c2ccccc2Cc2ccccc21
inactive: dose: 83.0 mg/kg/injection, schedule: Q01DX Z (ip), vehicle: methylcellulose (MC) 86 % of control | dose: 125.0 mg/kg/injection, schedule: Q01DX Z (ip), vehicle: methylcellulose (MC) 86 % of control

COc1ccc(C(=O)/C=C/c2cccc3ccccc23)cc1
inactive: dose: 100.0 mg/kg/injection, schedule: Q04DX002 (ip), vehicle: saline with Tween-80 86 % of control | dose: 200.0 mg/kg/injection, schedule: Q04DX002 (ip), vehicle: saline with Tween-80 86 % of control | dose: 400.0 mg/kg/injection, schedule: Q04DX002 (ip), vehicle: saline with Tween-80 86 % of control

CS(=O)(=O)OCC1OC(c2ccccc2)OC(C(CBr)OS(C)(=O)=O)C1OS(C)(=O)=O (centres undefined)
inactive: [3] 97 % of control | [4] 93 % of control | [12] 93 % of control

BrC1(Br)C2CC/C=C\CCC21 (centres undefined)
inactive: [14] 102 % of control | [15] 94 % of control
